This passage reports IC50 results from patent US20220073496A1, “NOVEL QUINOLINE DERIVATIVE INHIBITOR” (Nanjing Transthera Biosciences Co., Ltd., priority 2018, published 2022).

The target of experiment [1] is T1, H1299 cell pMer (Homo sapiens, UniProt Q12866).
T1 construct: The H1299 cells were inoculated in a 6-well plate; endogenous in cells; host or cells: H1299
T1 sequence (Q12866 21-999): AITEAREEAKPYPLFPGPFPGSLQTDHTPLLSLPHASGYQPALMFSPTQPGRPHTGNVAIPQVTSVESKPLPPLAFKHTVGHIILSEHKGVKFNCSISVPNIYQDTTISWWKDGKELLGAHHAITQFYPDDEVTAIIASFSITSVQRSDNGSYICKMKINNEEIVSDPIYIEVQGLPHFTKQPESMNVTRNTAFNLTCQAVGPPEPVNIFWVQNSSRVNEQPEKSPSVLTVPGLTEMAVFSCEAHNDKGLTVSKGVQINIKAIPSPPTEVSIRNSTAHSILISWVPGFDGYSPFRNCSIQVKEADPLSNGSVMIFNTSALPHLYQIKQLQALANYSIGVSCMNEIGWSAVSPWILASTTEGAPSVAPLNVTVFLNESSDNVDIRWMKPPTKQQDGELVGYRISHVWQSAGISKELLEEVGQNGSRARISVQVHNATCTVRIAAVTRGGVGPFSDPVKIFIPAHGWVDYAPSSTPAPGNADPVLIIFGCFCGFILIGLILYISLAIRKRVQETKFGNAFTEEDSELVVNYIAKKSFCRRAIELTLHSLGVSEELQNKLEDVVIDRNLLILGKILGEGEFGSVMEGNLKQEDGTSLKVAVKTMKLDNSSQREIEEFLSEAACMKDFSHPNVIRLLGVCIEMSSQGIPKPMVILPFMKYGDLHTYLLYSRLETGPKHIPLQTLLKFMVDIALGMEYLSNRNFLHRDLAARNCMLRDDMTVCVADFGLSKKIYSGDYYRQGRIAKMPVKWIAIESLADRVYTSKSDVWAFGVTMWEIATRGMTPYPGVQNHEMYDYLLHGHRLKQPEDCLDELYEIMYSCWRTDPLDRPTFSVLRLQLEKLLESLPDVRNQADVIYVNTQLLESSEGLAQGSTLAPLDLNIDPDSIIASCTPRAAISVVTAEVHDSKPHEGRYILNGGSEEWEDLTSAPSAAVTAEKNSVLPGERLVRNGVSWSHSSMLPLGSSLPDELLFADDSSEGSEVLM
As to the kind of experiment: Inhibitory activity on the cell pMer (Western Blot). It counts as cell-based. To be noted: H1299 cells, compound 0.35, 1.1, 3.3, 10 nM, Human MerMab 200 ng/mL. The method, then: Assay 6: Test for Inhibitory Activities of the Compounds of the Present Invention on the Cell pMer
H1299 is a non-small cell lung cancer cell.
Test substances: the compounds of the present invention, wherein the structures thereof were as described above.
Test equipment: protein electrophoresis apparatus (manufactured by Bio Rad), transfer unit (manufactured by Bio Rad), exposure unit (manufactured by Tanon), CO2 cell incubator (manufactured by Thermo).
The H1299 cells were inoculated in a 6-well plate (containing 10% FBS 1640 medium, 5×10^5 cells per well), and adherent cells were cultivated at 37° C. in a 5% CO2 condition for 18 hours. The cells were starved overnight. Different concentrations of compounds were added. The final compound concentrations were 0.35, 1.1, 3.3 and 10 nM, and the final DMSO content was 1‰. The negative control wells contained the medium containing 1‰ DMSO. After incubating at 37° C. in a 5% CO2 condition for 60 minutes, Human MerMab (R&D, final concentration 200 ng/mL) was added to each well. After further incubating for 60 minutes, the cell total protein was extracted for Western Blot and the IC50 values were calculated using GraphPad 5.0 software. The inhibitory activity of the compound on the cell pMer was examined.

The target of experiment [2] is T2, Mer (h) (Homo sapiens, UniProt Q12866).
T2 construct: purchased
T2 sequence (Q12866 21-999): T1 sequence (Q12866 21-999)
As to the kind of experiment: Enzymatic activity test, Mer (h). In kind it is biochemical. To be noted: 10 μM [γ-33P]-ATP, 40 minutes, room temperature. The method, then:
Assay 3: Enzymatic Activity Test of the Compounds of the Present Invention
Test substances: the compounds of the present invention, wherein the structures and preparations thereof were as described above.
(1) Preparation of the Compound Stock Solution
The compound was dissolved in 100% DMSO to prepare a stock solution with a maximum concentration of 500 μM.
(2) Preparation of the Compound Working Solution
The compound stock solution was diluted to final concentrations of 500, 150, 50, 15, 5, 1.5, 0.5, 0.15 and 0.05 μM to become the compound working solutions (50×).
(3) Preparation of Different Enzyme Reaction Solutions
The Mer (h) enzyme was dissolved in 8 mM MOPS (pH 7.0), 0.2 mM EDTA, 30 mM NaCl, and 250 μM GGMEDIYFEFIVIGGKKK to prepare an enzyme solution having a final concentration of 3.1 nM. The enzymatic reaction was activated by using 10 mM magnesium acetate and 10 μM [γ-^33P]-ATP to form an Mg/ATP mixed solution.
In a 384-well plate, the compound working solution was added to final concentrations of 10000, 3000, 1000, 300, 100, 30, 10, 3, and 1 nM. Then different enzyme reaction solutions prepared according to the above conditions were added. The incubation was carried out for 40 minutes at room temperature. The test was terminated by the addition of a 0.5% phosphoric acid solution. 10 μL of the reaction solution was taken and dropped to the P30 filter paper. The filter paper was washed 4 times with 0.425% phosphoric acid solution and once with methanol, and then placed on a scintillation counter. The […] IC50 values were calculated using GraphPad 5.0 software.

pIC50: −log10 of the molar value.

Consider `COc1cc2nccc(Oc3ccc(NC(=O)c4nn(C(C)C)cc(-c5ccc(F)cc5)c4=O)nc3)c2cc1OC` [Compound 15, N-(5-((6,7-dimethoxyquinolin-4-yl)oxy)pyridin-2-yl)-5-(4-fluorophenyl)-1-isopropyl-4-oxo-1,4-dihydropyridazine-3-carboxamide], for which the pIC50 (usually −log10 of the IC50, conventionally taken in molar units) in experiment [1] is greater than 9.46; in experiment [2] it was greater than 9.00.
The matching figures for `COc1cc2nccc(Oc3cnc(NC(=O)c4nn(C(C)C)cc(-c5ccc(F)cc5)c4=O)nc3)c2cc1OC` [Compound 16, N-(5-((6,7-dimethoxyquinolin-4-yl)oxy)pyrimidine-2-yl)-5-(4-fluorophenyl)-1-isopropyl-4-oxo-1,4-dihydropyridazine-3-carboxamide]: greater than 8.96 and 8.70.
For `COc1cc2nccc(Oc3ccc(NC(=O)c4cn(C5CC5)cc(-c5ccc(F)cc5)c4=O)nc3)c2cc1OC` [Compound 30, N-(5-((6,7-dimethoxyquinolin-4-yl)oxy)pyridin-2-yl)-1-cyclopropyl-4-oxo-5-para-fluorophenyl-1,4-hydropyridin-3-carboxamide], the pIC50 in experiment [1] is 8.48 to 8.96; in experiment [2], greater than 9.00.
In the case of `COc1cc2nccc(Oc3ccc(NC(=O)c4cn(C5CC5)nc(-c5ccc(F)cc5)c4=O)cn3)c2cc1OC` [Compound 43, 2-cyclopropyl-N-(6-((6,7-dimethoxyquinolin-4-yl)oxy)pyridin-3-yl)-6-para-fluorophenyl-5-oxo-2,5-dihydropyridazine-4-carboxamide], the pIC50 in experiment [1] was greater than 8.96.
Regarding `COc1cc2nccc(Oc3ccc(NC(=O)c4cn(C(C)C)cc(-c5ccc(F)cc5)c4=O)nc3)c2cc1OC` [Compound 14, N-(5-((6,7-dimethoxyquinolin-4-yl)oxy)pyridin-2-yl)-5-(4-fluorophenyl)-1-isopropyl-4-oxo-1,4-dihydropyridin-3-carboxamide], the pIC50 is 9.46 in experiment [1] and 8.70 in experiment [2].
The matching figures for `COc1cc2nccc(Oc3cnc(NC(=O)c4cn(C5CC5)cc(-c5ccc(F)cc5)c4=O)nc3)c2cc1OC` [Compound 32, 1-cyclopropyl-N-(5-((6,7-dimethoxyquinolin-4-yl)oxy)pyrimidine-2-yl)-5-(4-fluorophenyl)-4-oxo-1,4-dihydropyridin-3-carboxamide]: greater than 8.96 and 8.70.
On to `COc1cc2nccc(Oc3ncc(NC(=O)c4nn(C(C)C)cc(-c5ccc(F)cc5)c4=O)cn3)c2cc1OC` [Compound 34, N-(2-((6,7-dimethoxyquinolin-4-yl)oxy)pyrimidine-5-yl)-5-para-fluorophenyl-1-isopropyl-4-oxo-1,4-dihydropyridazine-3-carboxamide], for which the negative logarithm of the IC50 (pIC50) in experiment [1] was greater than 8.96; in experiment [2] it was 8.70.
The like results for `COc1cc2nccc(Oc3cnc(NC(=O)c4nn(C5CC5)cc(-c5ccc(F)cc5)c4=O)nc3)c2cc1OC` [Compound 33] were, in that order, greater than 8.96 and greater than 9.00.
Turning to `COc1cc2nccc(Oc3cnc(NC(=O)c4cn(C5CC5)nc(-c5ccc(F)cc5)c4=O)nc3)c2cc1OC` [Compound 45, 2-cyclopropyl-N-(5-((6,7-dimethoxyquinolin-4-yl)oxy)pyrimidine-2-yl)-6-(4-fluorophenyl)-5-oxo-2,5-dihydropyridazine-4-carboxamide], in experiment [1], the pIC50 is greater than 8.96.
As to `COc1cc2nccc(Oc3ncc(NC(=O)c4cn(C(C)C)nc(-c5ccc(F)cc5)c4=O)cn3)c2cc1OC` [Compound 40, N-(2-((6,7-dimethoxyquinolin-4-yl)oxy)pyrimidine-5-yl)-6-(4-fluorophenyl)-2-isopropyl-5-oxo-2,5-dihydropyridazine-4-carboxamide], the pIC50 in experiment [2] is 7.92.
Take `COc1cc2nccc(Oc3ccc(NC(=O)c4cn(C(C)C)nc(-c5ccc(F)cc5)c4=O)nc3)c2cc1OC` [Compound 41, N-(5-((6,7-dimethoxyquinolin-4-yl)oxy)pyridin-2-yl)-6-(4-fluorophenyl)-2-isopropyl-5-oxo-2,5-dihydropyridazine-4-carboxamide]: the results for the pIC50 in experiment [1] and in experiment [2] were greater than 8.48 and 8.70, respectively.
In the case of `COc1cc2nccc(Oc3ncc(NC(=O)c4nn(C5CC5)cc(-c5ccc(F)cc5)c4=O)cn3)c2cc1OC` [Compound 37, 1-cyclopropyl-N-(2-((6,7-dimethoxyquinolin-4-yl)oxy)pyrimidine-5-yl)-5-para-fluorophenyl-4-oxo-1,4-dihydropyridazine-3-carboxamide], the pIC50 was 8.48 to 8.96 in experiment [1] and greater than 9.00 in experiment [2].
With `COc1cc2nccc(Oc3ccc(NC(=O)c4nn(C5CC5)cc(-c5ccc(C)cc5)c4=O)nc3)c2cc1OC` [Compound 46, 1-cyclopropyl-N-(5-((6,7-dimethoxyquinolin-4-yl)oxy)pyridin-2-yl)-4-oxo-5-p-tolyl-1,4-dihydropyridazine-3-carboxamide], the pIC50 in experiment [1] is greater than 9.43.
In the case of `COc1cc2nccc(Oc3ccc(NC(=O)c4nn(C(C)C)cc(-c5ccc(F)cc5)c4=O)cn3)c2cc1OC` [Compound 29, N-(6-((6,7-dimethoxyquinolin-4-yl)oxy)pyridin-3-yl)-1-isopropyl-4-oxo-5-para-fluorophenyl-1,4-dihydropyridazine-3-carboxamide], the pIC50 was greater than 8.96 in experiment [1] and 9.00 in experiment [2].
The matching figures for `COc1cc2nccc(Oc3ccc(NC(=O)c4nn(C5CC5)cc(-c5ccc(F)cc5)c4=O)nc3)c2cc1OC` [Compound 31]: greater than 9.46 and greater than 9.00.
Regarding `COc1cc2nccc(Oc3ccc(NC(=O)c4cn(C(C)C)nc(-c5ccc(F)cc5)c4=O)cn3)c2cc1OC` [Compound 38, N-(6-((6,7-dimethoxyquinolin-4-yl)oxy)pyridin-3-yl)-6-para-fluorophenyl-2-isopropyl-5-oxo-2,5-dihydropyridazine-4-carboxamide], the pIC50 in experiment [2] was 8.52.
Take `COc1cc2nccc(Oc3ccc(NC(=O)c4nn(C5CC5)cc(-c5ccc(F)cc5)c4=O)cn3)c2cc1OC` [Compound 36]: the pIC50 in experiment [1] is greater than 9.46; in experiment [2] it was greater than 9.00.
The compound `COc1cc2nccc(Oc3ccc(NC(=O)c4cn(C5CC5)nc(-c5ccc(F)cc5)c4=O)nc3)c2cc1OC` [Compound 42, 2-cyclopropyl-N-(5--((6,7-dimethoxyquinolin-4-yl)oxy)pyridin-2-yl)-6-(4-fluorophenyl)-5-oxo-2,5-dihydropyridazine-4-carboxamide] gave a pIC50 in experiment [1] greater than 8.96.
